Measured values as given in patent US10682371B2, “Small molecule conjugates specifically activated in tumor microenvironment for targeting and use thereof” (priority 2014, dated 2020).
*1 amine or outer side, *2 acyl side, *3 side chain or, on linkers, in order; H or OH if unused. Where a SMILES comes first, the peptide text is derived from it. [ ]: non-standard residue; d: D form. The star is where a group is joined. ξ: configuration not given here. Doxorubicin(3'-N) = COc1cccc2c1C(=O)c1c(O)c3c(c(O)c1C2=O)C[C@@](O)(C(=O)CO)C[C@@H]3O[C@H]1C[C@H](N*)[C@H](O)[C@H](C)O1; Dolaproine(all-ξ) = COC(C(C)C(=O)[*:2])C1CCCN1[*:1]; Dolaproine = CO[C@@H]([C@@H]1CCCN1)[C@@H](C)C(=O)O; Dil = CC[C@H](C)[C@H](NC)[C@@H](CC(=O)O)OC; X1 = CCC(C)C(C(CC(=O)[*:2])OC)N(C)[*:1]; PABC = O=C(OCc1ccc(N[*:1])cc1)[*:2]; X3 = C[C@@H](N*)[C@@H](O)c1ccccc1; MeOCH2CH2OCH2CO = COCCOCC(=O)*; NMeV = CN[CH](C(=O)O)C(C)C; X2 = CC(N*)C(O)c1ccccc1; Cbz = O=C(OCc1ccccc1)*

Legend:
[1] = target: T1, asparagine endopeptidase (Homo sapiens, UniProt Q99538)
T1 sequence (Q99538 26-323 limits assumed): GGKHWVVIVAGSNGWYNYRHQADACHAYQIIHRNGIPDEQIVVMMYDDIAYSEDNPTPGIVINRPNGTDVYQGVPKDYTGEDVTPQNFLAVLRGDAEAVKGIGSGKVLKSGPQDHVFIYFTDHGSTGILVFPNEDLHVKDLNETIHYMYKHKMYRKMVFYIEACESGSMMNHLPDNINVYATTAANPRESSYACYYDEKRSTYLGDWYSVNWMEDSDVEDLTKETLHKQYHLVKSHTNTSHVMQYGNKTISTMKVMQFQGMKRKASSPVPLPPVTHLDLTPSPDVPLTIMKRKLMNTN
Description: Reduction of reactant and increase of product were detected by HPLC, thereby comparing the activation efficiency of these compounds.
(§1) When R1 is 2-(2-Methoxyethoxy)Acetyl, and R3 is Ala, activation study and efficacy study were carried out by using compounds having different cleavable linker. The study methods are identical to those in Examples 10, 11 and 12. The in vitro activation efficiency was tested by asparagine endopeptidase and the tumor inhibition rate was tested by using human breast cancer MDA-MB231 model.

[2] = test system: HEK293 cells; type: cell-based
Description: Toxicity detection method: a standard universal test program was used to perform the in vitro cytotoxicity test. 2500 HEK293 cells were cultured in a 96-well plate, and allowed to grow overnight. Cytotoxic compounds and their corresponding conjugated compounds were added into each well in different concentrations, cultivated with the cells at 37° C. for 72 hours, and then treated with MTT reagents. OD changes were read. The approximate multiples of the toxicity change were obtained by comparing the IC50 of the modified compounds to their corresponding cytotoxic compounds.

[3] = test system: Human breast cancer MDA-MB231 cells; type: in vivo, nude mice; conditions: for tumor inhibition rate (%): mouse, in vivo
Description: 1) Human breast cancer MDA-MB231 cells were purchased from American type culture collection (ATCC) and identified according the specification provided by ATCC. Cells were cultivated in […] (DMEM culture medium) containing 10% fetal bovine serum at 37° C. and 5% CO2. The cells were passaged for every three days and cells within the 15th passage were used.
2) Production of tumor. 5×10^6 MDA-MB231 cells were subcutaneously injected to the back of the nude mice. Mice were randomly grouped after the tumor reached at least 100 mm^3. Then treatment began and the day on which the treatment began was day 1.
3) Course of treatment. […] The drugs were administered once weekly for four weeks.
as §1, with “model. […]” for “model.”

[4] = test system: D121 lung tumor cells; type: in vivo, C57 mice
Description: 1) D121 lung tumor cells were purchased from ATCC. Cells were cultivated in DMEM culture solution containing 10% fetal bovine serum at 37° C. and 5% CO2. The cells were passaged for every three days and cells within the 15th passage were used.
(§2) 2) Tumor immunization. 5×10^5 D121 lung cancer cells (purchased from ATCC) which were killed by irradiation were intraperitoneally injected to mice. The mice were injected for 3 times, once every two weeks. After immunization, mice were injected with tumor cells and the drugs were administered weekly for 4 weeks.
3) Production of tumor. At day 32, 10^6 live lung tumor cells were subcutaneously injected to the back of the C57 mice immunized by tumor. Treatment began when the tumor grew to 0.3-0.4 cm.
as §2, with “4 weeks. In table 16 below the immune group was immuned with D121 lung tumor cells and the group without dead D121 lung tumor cells was injected with physiological saline as controls.” for “4 weeks.”
3) Production of tumor. After immunization (4 weeks later), 10^6 live lung tumor cells were subcutaneously injected to the back of the C57 mice immunized by tumor. Treatment began when the tumor grew to 0.3-0.4 cm. Tumor size (mm^3) were noted and tumor inhibition rates were calculated.
as §2, with “4 weeks. In the table below the immune group was immuned with D121 lung tumor cells and the group without dead D121 lung tumor cells was injected with physiological saline as controls.” for “4 weeks.”
3) Production of tumor. At day 32, 10^6 live D121 lung tumor cells were subcutaneously injected to the back of the C57 mice immunized by tumor. Treatment began when the tumor grew to 0.3-0.4 cm.
1) D121 lung tumor cells were purposed from ATCC. Cells were cultivated in DMEM culture solution containing 10% fetal bovine serum at 37° C. and 5% CO2. The cells were passaged for every three days and cells within the 15th passage were used.

[5] = test system: Human colon cancer HT-29 tumor tissue homogenate; type: biochemical; conditions: Human colon cancer HT-29 tumor tissue homogenate (30 μg/ml); 1 mg/ml compound
Description: (§3) At 37 °C, sample compounds were added into 100 μg acidized tumor tissue homogenates (pH6.0) in a concentration of 1 mg/ml.
(§4) […], sample compounds were added into 100 μg acidized tumor tissue homogenates (pH6.0) in a concentration of 1 mg/ml.
(§5) At 37 °C, sample compounds were added into 100 μg acidized tumor tissue homogenates in a concentration of 1 mg/ml.
(§6) In the experiments, at 37 °C, compounds were added into proteases in 100 μg acidized tumor tissue homogenates in a concentration of 1 mg/ml. […] Meanwhile certain compounds produced in the screening were compared and their activation efficiency in same tissue was analyzed.
(§7) At 37° C., compounds were added into proteases in 100 μg acidized tumor tissue homogenates in a concentration of 1 mg/ml.

[6] = test system: Human non-small cell lung cancer A549 tumor tissue homogenate; type: biochemical; conditions: Human non-small cell lung cancer A549 tumor tissue homogenate (30 μg/ml); 1 mg/ml compound
Description: as §3, §4, §5, §6, §7

[7] = test system: Human renal cancer OS-RC-2 tumor tissue homogenate; type: biochemical; conditions: Human renal cancer OS-RC-2 tumor tissue homogenate (30 μg/ml); 1 mg/ml compound
Description: as §3, §4, §5, §6, §7

[8] = test system: Human chronic leukemia K562 tumor tissue homogenate; type: biochemical; conditions: Human chronic leukemia K562 tumor tissue homogenate (30 μg/ml); 1 mg/ml compound
Description: as §3, §4, §5, §6, §7

[9] = test system: Human pancreatic cancer Panc-1 tumor tissue homogenate; type: biochemical; conditions: Human pancreatic cancer Panc-1 tumor tissue homogenate (30 μg/ml); 1 mg/ml compound
Description: as §3, §4, §5, §6, §7

[10] = test system: Human liver cancer Hepg2 tumor tissue homogenate; type: biochemical; conditions: Human liver cancer Hepg2 tumor tissue homogenate (30 μg/ml); 1 mg/ml compound
Description: as §3, §4, §5, §6, §7

[11] = test system: Human heart; type: biochemical; conditions: Human heart homogenate; 1 mg/ml compound
[12] = test system: tumor CD8+ T cells; type: in vivo, C57 mice; conditions: D121 immunized C57 mice, 13.2 μmol/kg; ratio of CD8 positive cells in CD45 positive cells of tumor
Description: (§8) 4) Analysis on tumor CD8+ T cells. The tumor tissue was homogenated and individual cells in the tumor were filtered, separated and washed by buffer twice, then cultivated with the leucocyte common antigen CD45-PE and CD8-FITC marked antibodies for 1 hour at ambient temperature. The cells were washed by phosphate buffer containing 1% fetal bovine serum twice and then analyzed for the ratio of the T lymphocyte antigen (CD8) positive cells in the leucocyte common antigen (CD45) positive cells by flow cytometry.
as §8, with “CD45-PE and T-lymphocyte antigen CD8-FITC marked” for “CD45-PE and CD8-FITC marked”, “flow cytometry. Increasement of the ratio indicates increased T lymphocyte cells and thus the animal immunity against the tumor was improved.” for “flow cytometry.”
as §8, with “cytometry. Increasement of the ratio indicates increased T lymphocyte cells and thus the animal immunity against the tumor was improved.” for “cytometry.”

[13] = test system: Human breast cancer MDA-MB435 tumor tissue homogenate; type: biochemical; conditions: Human breast cancer MDA-MB435 tumor tissue homogenate (30 μg/ml); 1 mg/ml compound
Description: as §3
(§9) At 37 °C, sample compounds were added into 100 μg acidized human breast cancer (MDA-MB435) tumor tissue homogenates (pH6.0) in a concentration of 1 mg/ml.
as §4, §9, §5, §6, §7

Compound: CC[C@H](C)[C@@H]([C@@H](CC(=O)N1CCC[C@H]1[C@H](OC)[C@@H](C)C(=O)N[C@H](C)[C@@H](O)c1ccccc1)OC)N(C)C(=O)[C@@H](NC(=O)[C@H](C(C)C)N(C)C(=O)OCc1ccc(NC(=O)[C@H](CC(N)=O)NC(=O)[C@H](C)NC(=O)[C@H](C)NC(C)=O)cc1)C(C)C [AC-AAN-PABC-MMAE] (Ac-AAN[PABC][NMeV]V[Dil][Dolaproine]-X3)
- Cleaving efficiency [1]: 3.4%
- Cytoxicity reduced (Multiples) [2]: 15.5 Multiples
- tumor inhibition rate (%) [3]: 16.7%

Compound: CC[C@H](C)[C@@H]([C@@H](CC(=O)N1CCC[C@H]1[C@H](OC)[C@@H](C)C(=O)N[C@H](C)[C@@H](O)c1ccccc1)OC)N(C)C(=O)[C@@H](NC(=O)[C@H](C(C)C)N(C)C(=O)OCc1ccc(NC(=O)[C@H](CC(N)=O)NC(=O)[C@H](C)NC(=O)[C@H](C)NC(=O)OCc2ccccc2)cc1)C(C)C [CBZ-AAN-PABC-MMAE] (Cbz-AAN[PABC][NMeV]V[Dil][Dolaproine]-X3)
- Cleaving efficiency [1]: 2.6%
- Cytoxicity reduced (Multiples) [2]: 8.3 Multiples
- tumor inhibition rate (%) [3]: 9.7%

Compound: COCCOCC(=O)N[C@H](C(=O)N[C@@H](C)C(=O)N[C@@H](CC(N)=O)C(=O)Nc1ccc(COC(=O)N[C@H]2C[C@H](O[C@H]3C[C@](O)(C(C)=O)Cc4c(O)c5c(c(O)c43)C(=O)c3c(OC)cccc3C5=O)O[C@@H](C)[C@H]2O)cc1)C(C)O (stereo partly drawn) [Compound S4, 4-N—(N—(N—(N-2-(2-methoxyethoxy)acetyl-L-threonyl)-L-alanyl)-L-asparaginyl)-amino benzyl alcohol-daunorubicin-carbamate]
- Size of tumor (mm^3) Day 18 ([4]; D121 immunized C57 mice, 13.2 μmol/kg weekly, PDL1 antibody 5 μg/kg where combined, Day 18): 316.78 ± 109.98 mm^3
- Treatment effects on C57 mice, in words ([4]; compared to the control group and the other treatment groups): greatly improved
- Cytoxicity reduced (Multiple) ([2]; HEK293, 72 hours, MTT, IC50 of modified compound compared to its corresponding cytotoxic compound, approximate multiples): 345 Multiple
- Activation Efficiencies (%) [5]: 83.5%
- Activation Efficiencies (%) [6]: 64.5%
- Activation Efficiencies (%) [7]: 78.5%
- Activation Efficiencies (%) [8]: 64.5%
- Activation Efficiencies (%) [9]: 67.3%
- Activation Efficiencies (%) [10]: 67.3%
- Activation Efficiencies (%) [11]: 2.8%
- CD8: CD45 (%) [12]: 16.8%
- Size of tumor (mm^3) Day 10 ([3]; MDA-MB231, nude mice, IV 13.2 μmol/kg once weekly for four weeks, Day 10): 95.56 ± 57.54 mm^3
- Size of tumor (mm^3) Day 24 ([3]; MDA-MB231, nude mice, IV 13.2 μmol/kg once weekly for four weeks, Day 24): 64.68 ± 43.56 mm^3
- Effect on tumor growth, in words ([3]; compared to control, camptothecin, capecitabine and daunorubicin groups): strong inhibitory effect on tumor growth
- Activation Efficiencies (%) [13]: 83.5%

Compound: CCC(C)C(C(CC(=O)N1CCCC1C(OC)C(C)C(=O)NC(C)C(O)c1ccccc1)OC)N(C)C(=O)C(NC(=O)C(C(C)C)N(C)C(=O)OCc1ccc(NC(=O)C(CC(N)=O)NC(=O)C(C)NC(=O)C(C)NC(=O)COCCOC)cc1)C(C)C (stereo not drawn) [PEG-AAN-PABC-MMAE] (MeOCH2CH2OCH2CO-AAN[PABC][NMeV]V[X1][Dolaproine(all-ξ)]-X2; configuration not given here)
- Cleaving efficiency [1]: 14.4%
- Cytoxicity reduced (Multiples) [2]: 22 Multiples
- tumor inhibition rate (%) [3]: 34.4%

Compound: COCCOCC(=O)N[C@@H](C)C(=O)N[C@@H](C)C(=O)N[C@@H](CC(N)=O)C(=O)N[C@@H](CC(C)C)C(=O)N[C@H]1C[C@H](O[C@H]2C[C@](O)(C(=O)CO)Cc3c(O)c4c(c(O)c32)C(=O)c2c(OC)cccc2C4=O)O[C@@H](C)[C@H]1O [PEG-AANL-DOX] (MeOCH2CH2OCH2CO-AANL-{Doxorubicin(3'-N)})
- Cleaving efficiency [1]: 66.5%
- Cytoxicity reduced (Multiples) [2]: 110.2 Multiples
- tumor inhibition rate (%) [3]: 60.3%
